Test results taken from patent US8957108B2, “Use of 5,6-dimethylxanthenone-4-acetic acid as an antiviral agent” (University of Maryland, Baltimore, priority 2006, dated 2015).

Legend:
macrophages = test: Expression of LPS-inducible early genes and IFN production in macrophages; type: cell-based, mouse
From the text: Because all of the cellular activities listed above can be performed by another ubiquitous yet structurally diverse compound, the lipopolysaccharide (LPS) of Gram-negative bacteria, the ability of DMXAA to modulate the expression of a subset of well-characterized LPS-inducible early genes in macrophages was studied in an effort to further elucidate the mechanism of DMXAA action. DMXAA's ability to induce IFN production by macrophages and to modulate the expression of the genes that encode transcription factors IRF-1, IRF-2, and ICSBP members of the interferon regulatory factor (IRF) gene family was also studied. […] These genes are: TNF-α, IL-1β, IP-10, Type 2 Tumor Necrosis Factor Receptor (TNFR-2), D3, and D8.

IRF-3 = test: Native-PAGE and Western blotting for IRF-3 dimers; type: cell-based, mouse; conditions: peritoneal macrophages, DMXAA- vs. LPS-stimulated
Protocol: Rabbit anti-mouse IκBα phospho-specific Ab (pAb) was purchased from Santa Cruz Biotechnology, Inc. (Santa Cruz, Calif.). Rabbit anti-mouse MAPK pAb and rabbit anti-human phospho-IRF-3 pAb antibodies were purchased from Cell Signaling (Danvers, Mass.). Rabbit anti-mouse IRF-3 pAb was purchased from Zymed (South San Francisco, Calif.). Native-PAGE for the detection of IRF-3 dimers was carried out as described in Iwamura, T. et al. (2001) “Induction Of IRF-3/-7 Kinase And NF-kappaB in Response To Double-Stranded RNA And Virus Infection: Common And Unique Pathways,” Genes and Cells 6:375-388. Briefly, thioglycollate-elicited peritoneal macrophages were lysed following stimulation with either LPS or DMXAA as indicated. […] Membranes were probed with a 1:250 dilution of rabbit anti-mouse IRF-3 for 1 h at room temperature. Goat anti-rabbit IgG-HRP (Cell Signaling Technologies, Danvers, Mass.) at a 1:2000 dilution was used as the secondary Ab. Blots were developed with ECL Plus (Amersham Biosciences, Piscataway, N.J.).

## Cc1ccc2c(=O)c3cccc(CC(=O)O)c3oc2c1C [DMXAA, 5,6-dimethylxanthenone-4-acetic acid]
macrophages
  TNF-α gene expression: only low induction
  expression of the genes encoding IP-10, D8, and D3: up-regulated to levels similar to those observed upon LPS induction
  induction of TNFR-2 and IL-1β genes: insignificant induction
macrophages; mouse macrophages
  induction of Type 1 Interferons (IFNs): extremely potent inducer
IRF-3
  activated IRF-3 dimers: much more abundant and longer-lived
